{"source": "ChEMBL document CHEMBL3046627", "about": "“Synthesis and in vitro study of antibacterial, antifungal activities of some novel bisquinolines” (2013)", "note": "Activity calls are given as the source filed them. The calls are words filed in the database; no cut-off is given here."}
{"system": "Cryptococcus neoformans", "assay": "Antifungal activity against Cryptococcus neoformans assessed as growth inhibition after 96 hr by agar dilution method", "type": "functional", "settings": "not given"}
{"smiles": "Clc1ccc(OCc2nc3ccccc3nc2COc2ccc(Cl)c3cccnc23)c2ncccc12", "MIC": "inactive"}
{"smiles": "Clc1ccc(OCc2cc3ccccc3cc2COc2ccc(Cl)c3cccnc23)c2ncccc12", "MIC": "inactive"}
{"system": "Shigella dysenteriae", "assay": "Antibacterial activity against Shigella dysenteriae 15 assessed as growth inhibition at MIC after 24 hr by agar dilution method", "type": "functional", "settings": "not given"}
{"smiles": "Clc1ccc(OCc2nc3ccccc3nc2COc2ccc(Cl)c3cccnc23)c2ncccc12", "diameter of the inhibition zone (DIZ)": "6 mm"}
{"smiles": "Clc1ccc(OCc2cc3ccccc3cc2COc2ccc(Cl)c3cccnc23)c2ncccc12", "diameter of the inhibition zone (DIZ)": "inactive"}
{"system": "Candida albicans", "assay": "Antifungal activity against Candida albicans assessed as growth inhibition after 96 hr by agar dilution method", "type": "functional", "settings": "not given"}
{"smiles": "Clc1ccc(OCc2nc3ccccc3nc2COc2ccc(Cl)c3cccnc23)c2ncccc12", "MIC": "1000 µg/mL"}
{"smiles": "Clc1ccc(OCc2cc3ccccc3cc2COc2ccc(Cl)c3cccnc23)c2ncccc12", "MIC": "inactive"}
{"system": "Micrococcus luteus", "assay": "Antibacterial activity against Micrococcus luteus ATCC 9341 assessed as growth inhibition at MIC after 24 hr by agar dilution method", "type": "functional", "settings": "not given", "units": {"diameter of the inhibition zone (DIZ)": "mm"}}
{"smiles": "Clc1ccc(OCc2nc3ccccc3nc2COc2ccc(Cl)c3cccnc23)c2ncccc12", "diameter of the inhibition zone (DIZ)": 7}
{"smiles": "Clc1ccc(OCc2cc3ccccc3cc2COc2ccc(Cl)c3cccnc23)c2ncccc12", "diameter of the inhibition zone (DIZ)": 8}
{"system": "Escherichia coli", "assay": "Antibacterial activity against Escherichia coli 319 assessed as growth inhibition at MIC after 24 hr by agar dilution method", "type": "functional", "settings": "not given", "units": {"diameter of the inhibition zone (DIZ)": "mm"}}
{"smiles": "Clc1ccc(OCc2nc3ccccc3nc2COc2ccc(Cl)c3cccnc23)c2ncccc12", "diameter of the inhibition zone (DIZ)": 8}
{"smiles": "Clc1ccc(OCc2cc3ccccc3cc2COc2ccc(Cl)c3cccnc23)c2ncccc12", "diameter of the inhibition zone (DIZ)": 7.2}
{"system": "Bacillus pumilus", "assay": "Antibacterial activity against Bacillus pumilus 11778 assessed as growth inhibition after 24 hr by agar dilution method", "type": "functional", "settings": "Bacillus pumilus, 11778, 24 h", "units": {"MIC": "µg/mL"}}
{"smiles": "Clc1ccc(OCc2nc3ccccc3nc2COc2ccc(Cl)c3cccnc23)c2ncccc12", "MIC": 32}
{"smiles": "Clc1ccc(OCc2cc3ccccc3cc2COc2ccc(Cl)c3cccnc23)c2ncccc12", "MIC": 32}
{"system": "Pseudomonas aeruginosa", "assay": "Antibacterial activity against Pseudomonas aeruginosa 71 assessed as growth inhibition after 24 hr by agar dilution method", "type": "functional", "settings": "Pseudomonas aeruginosa, 71, 24 h", "units": {"MIC": "µg/mL"}}
{"smiles": "Clc1ccc(OCc2nc3ccccc3nc2COc2ccc(Cl)c3cccnc23)c2ncccc12", "MIC": "> 500"}
{"smiles": "Clc1ccc(OCc2cc3ccccc3cc2COc2ccc(Cl)c3cccnc23)c2ncccc12", "MIC": "> 500"}
{"system": "Micrococcus luteus", "assay": "Antibacterial activity against Micrococcus luteus ATCC 9341 assessed as growth inhibition after 24 hr by agar dilution method", "type": "functional", "settings": "ATCC 9341, 24 h", "units": {"MIC": "µg/mL"}}
{"smiles": "Clc1ccc(OCc2nc3ccccc3nc2COc2ccc(Cl)c3cccnc23)c2ncccc12", "MIC": 32}
{"smiles": "Clc1ccc(OCc2cc3ccccc3cc2COc2ccc(Cl)c3cccnc23)c2ncccc12", "MIC": 32}
{"system": "Klebsiella pneumoniae", "assay": "Antibacterial activity against Klebsiella pneumoniae J/I/4 assessed as cell wall deformation at MIC after 24 hr by scanning electron microscopic analysis relative to untreated control", "type": "functional, organism-based", "settings": "not given"}
{"smiles": "Clc1ccc(OCc2cc3ccccc3cc2COc2ccc(Cl)c3cccnc23)c2ncccc12", "Activity": "Active"}
{"system": "Shigella dysenteriae", "assay": "Antibacterial activity against Shigella dysenteriae 15 assessed as growth inhibition after 24 hr by agar dilution method", "type": "functional", "settings": "Shigella dysenteriae, 15, 24 h", "units": {"MIC": "µg/mL"}}
{"smiles": "Clc1ccc(OCc2nc3ccccc3nc2COc2ccc(Cl)c3cccnc23)c2ncccc12", "MIC": "> 500"}
{"smiles": "Clc1ccc(OCc2cc3ccccc3cc2COc2ccc(Cl)c3cccnc23)c2ncccc12", "MIC": "> 500"}
{"system": "Staphylococcus aureus", "assay": "Antibacterial activity against Staphylococcus aureus 29737 assessed as growth inhibition after 24 hr by agar dilution method", "type": "functional", "settings": "Staphylococcus aureus, 29737, 24 h", "units": {"MIC": "µg/mL"}}
{"smiles": "Clc1ccc(OCc2nc3ccccc3nc2COc2ccc(Cl)c3cccnc23)c2ncccc12", "MIC": "> 500"}
{"smiles": "Clc1ccc(OCc2cc3ccccc3cc2COc2ccc(Cl)c3cccnc23)c2ncccc12", "MIC": "> 500"}
{"system": "Klebsiella pneumoniae", "assay": "Antibacterial activity against Klebsiella pneumoniae J/I/4 assessed as growth inhibition after 24 hr by agar dilution method", "type": "functional", "settings": "J/I/4, 24 h", "units": {"MIC": "µg/mL"}}
{"smiles": "Clc1ccc(OCc2nc3ccccc3nc2COc2ccc(Cl)c3cccnc23)c2ncccc12", "MIC": "> 500"}
{"smiles": "Clc1ccc(OCc2cc3ccccc3cc2COc2ccc(Cl)c3cccnc23)c2ncccc12", "MIC": 32}
{"system": "Staphylococcus aureus", "assay": "Antibacterial activity against Staphylococcus aureus 29737 assessed as growth inhibition at MIC after 24 hr by agar dilution method", "type": "functional", "settings": "not given"}
{"smiles": "Clc1ccc(OCc2nc3ccccc3nc2COc2ccc(Cl)c3cccnc23)c2ncccc12", "diameter of the inhibition zone (DIZ)": "inactive"}
{"smiles": "Clc1ccc(OCc2cc3ccccc3cc2COc2ccc(Cl)c3cccnc23)c2ncccc12", "diameter of the inhibition zone (DIZ)": "6 mm"}
{"system": "Vibrio cholerae", "assay": "Antibacterial activity against Vibrio cholerae 759 assessed as growth inhibition after 24 hr by agar dilution method", "type": "functional", "settings": "Vibrio cholerae, 759, 24 h", "units": {"MIC": "µg/mL"}}
{"smiles": "Clc1ccc(OCc2nc3ccccc3nc2COc2ccc(Cl)c3cccnc23)c2ncccc12", "MIC": "> 500"}
{"smiles": "Clc1ccc(OCc2cc3ccccc3cc2COc2ccc(Cl)c3cccnc23)c2ncccc12", "MIC": 128}
{"system": "Candida tropicalis", "assay": "Antifungal activity against Candida tropicalis assessed as growth inhibition after 96 hr by agar dilution method", "type": "functional", "settings": "not given"}
{"smiles": "Clc1ccc(OCc2nc3ccccc3nc2COc2ccc(Cl)c3cccnc23)c2ncccc12", "MIC": "1500 µg/mL"}
{"smiles": "Clc1ccc(OCc2cc3ccccc3cc2COc2ccc(Cl)c3cccnc23)c2ncccc12", "MIC": "inactive"}
{"system": "Cryptococcus neoformans", "assay": "Antifungal activity against Cryptococcus neoformans assessed as growth inhibition at MIC after 96 hr by agar dilution method", "type": "functional", "settings": "not given"}
{"smiles": "Clc1ccc(OCc2nc3ccccc3nc2COc2ccc(Cl)c3cccnc23)c2ncccc12", "diameter of the inhibition zone (DIZ)": "inactive"}
{"system": "Klebsiella pneumoniae", "assay": "Antibacterial activity against Klebsiella pneumoniae J/I/4 assessed as cell agglomeration at MIC after 24 hr by scanning electron microscopic analysis relative to untreated control", "type": "functional, organism-based", "settings": "not given"}
{"smiles": "Clc1ccc(OCc2cc3ccccc3cc2COc2ccc(Cl)c3cccnc23)c2ncccc12", "Activity": "Active"}
{"system": "Vibrio cholerae", "assay": "Antibacterial activity against Vibrio cholerae 759 assessed as growth inhibition at MIC after 24 hr by agar dilution method", "type": "functional", "settings": "not given"}
{"smiles": "Clc1ccc(OCc2nc3ccccc3nc2COc2ccc(Cl)c3cccnc23)c2ncccc12", "diameter of the inhibition zone (DIZ)": "inactive"}
{"smiles": "Clc1ccc(OCc2cc3ccccc3cc2COc2ccc(Cl)c3cccnc23)c2ncccc12", "diameter of the inhibition zone (DIZ)": "8 mm"}
{"system": "Klebsiella pneumoniae", "assay": "Antibacterial activity against Klebsiella pneumoniae J/I/4 assessed as growth inhibition at MIC", "type": "functional, organism-based", "settings": "TDE = time-dependent effect"}
{"smiles": "Clc1ccc(OCc2cc3ccccc3cc2COc2ccc(Cl)c3cccnc23)c2ncccc12", "growth inhibition (GI)": "tde"}
{"system": "Aspergillus niger", "assay": "Antifungal activity against Aspergillus niger assessed as growth inhibition after 96 hr by agar dilution method", "type": "functional", "settings": "not given"}
{"smiles": "Clc1ccc(OCc2nc3ccccc3nc2COc2ccc(Cl)c3cccnc23)c2ncccc12", "MIC": "1000 µg/mL"}
{"smiles": "Clc1ccc(OCc2cc3ccccc3cc2COc2ccc(Cl)c3cccnc23)c2ncccc12", "MIC": "inactive"}
{"system": "Pseudomonas aeruginosa", "assay": "Antibacterial activity against Pseudomonas aeruginosa 71 assessed as growth inhibition at MIC after 24 hr by agar dilution method", "type": "functional", "settings": "not given"}
{"smiles": "Clc1ccc(OCc2nc3ccccc3nc2COc2ccc(Cl)c3cccnc23)c2ncccc12", "diameter of the inhibition zone (DIZ)": "inactive"}
{"smiles": "Clc1ccc(OCc2cc3ccccc3cc2COc2ccc(Cl)c3cccnc23)c2ncccc12", "diameter of the inhibition zone (DIZ)": "inactive"}
{"system": "Escherichia coli", "assay": "Antibacterial activity against Escherichia coli 319 assessed as growth inhibition after 24 hr by agar dilution method", "type": "functional", "settings": "Escherichia coli, 319, 24 h", "units": {"MIC": "µg/mL"}}
{"smiles": "Clc1ccc(OCc2nc3ccccc3nc2COc2ccc(Cl)c3cccnc23)c2ncccc12", "MIC": 32}
{"smiles": "Clc1ccc(OCc2cc3ccccc3cc2COc2ccc(Cl)c3cccnc23)c2ncccc12", "MIC": 32}
{"system": "Klebsiella pneumoniae", "assay": "Antibacterial activity against Klebsiella pneumoniae J/I/4 assessed as growth inhibition at MIC after 24 hr by agar dilution method", "type": "functional", "settings": "not given", "units": {"diameter of the inhibition zone (DIZ)": "mm"}}
{"smiles": "Clc1ccc(OCc2nc3ccccc3nc2COc2ccc(Cl)c3cccnc23)c2ncccc12", "diameter of the inhibition zone (DIZ)": 6}
{"smiles": "Clc1ccc(OCc2cc3ccccc3cc2COc2ccc(Cl)c3cccnc23)c2ncccc12", "diameter of the inhibition zone (DIZ)": 7}
{"system": "Candida albicans", "assay": "Antifungal activity against Candida albicans assessed as growth inhibition at MIC after 96 hr by agar dilution method", "type": "functional", "settings": "not given", "units": {"diameter of the inhibition zone (DIZ)": "mm"}}
{"smiles": "Clc1ccc(OCc2nc3ccccc3nc2COc2ccc(Cl)c3cccnc23)c2ncccc12", "diameter of the inhibition zone (DIZ)": 7.8}
{"system": "Candida tropicalis", "assay": "Antifungal activity against Candida tropicalis assessed as growth inhibition at MIC after 96 hr by agar dilution method", "type": "functional", "settings": "not given", "units": {"diameter of the inhibition zone (DIZ)": "mm"}}
{"smiles": "Clc1ccc(OCc2nc3ccccc3nc2COc2ccc(Cl)c3cccnc23)c2ncccc12", "diameter of the inhibition zone (DIZ)": 7.5}
{"system": "Aspergillus niger", "assay": "Antifungal activity against Aspergillus niger assessed as growth inhibition at MIC after 96 hr by agar dilution method", "type": "functional", "settings": "not given", "units": {"diameter of the inhibition zone (DIZ)": "mm"}}
{"smiles": "Clc1ccc(OCc2nc3ccccc3nc2COc2ccc(Cl)c3cccnc23)c2ncccc12", "diameter of the inhibition zone (DIZ)": 7.5}
{"system": "Bacillus pumilus", "assay": "Antibacterial activity against Bacillus pumilus 11778 assessed as growth inhibition at MIC after 24 hr by agar dilution method", "type": "functional", "settings": "not given", "units": {"diameter of the inhibition zone (DIZ)": "mm"}}
{"smiles": "Clc1ccc(OCc2nc3ccccc3nc2COc2ccc(Cl)c3cccnc23)c2ncccc12", "diameter of the inhibition zone (DIZ)": 8}
{"smiles": "Clc1ccc(OCc2cc3ccccc3cc2COc2ccc(Cl)c3cccnc23)c2ncccc12", "diameter of the inhibition zone (DIZ)": 8}
